Laboratory results from article PMC11249646, “Small-Molecule Disruptors of the Interaction between Calcium- and Integrin-Binding Protein 1 and Integrin αIIbβ3 as Novel Antiplatelet Agents” (ACS Pharmacology & Translational Science, 2024).
Read-outs that look alike come from different tables or passages of the source.

Target: T1, CIB1 and αIIb interaction (CIB1-GST : F-αIIb peptide) (Homo sapiens, UniProt Q99828)
T1 construct: made in house; host or cells: BL-21 plus RIL cells (E. coli)
T1 sequence (Q99828 1-191): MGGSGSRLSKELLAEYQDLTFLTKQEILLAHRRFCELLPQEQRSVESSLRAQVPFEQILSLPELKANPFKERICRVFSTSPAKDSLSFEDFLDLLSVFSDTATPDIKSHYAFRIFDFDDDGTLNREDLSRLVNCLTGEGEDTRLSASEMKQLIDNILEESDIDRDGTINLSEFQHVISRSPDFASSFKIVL
Assay: FP assay, 1536-well qHTS format (primary and confirmatory screen)
Type: binding
Settings: for Efficacy (%): negative = inhibition; for Curve Class: negative sign = inhibitory curve; for IC50: read-out: IC50

[1] = qHTS primary screen hits, Table S2
[2] = qHTS primary screen hits, Table S2, several classes where COUNT > 1
[3] = qHTS primary screen of LOPAC/NPACT libraries

| Structure (SMILES) | Efficacy (%) [1] [%] | Curve Class [2] | IC50 [1] [µM] | Efficacy (%) [3] [%] | Curve Class [3] | IC50 [3] [µM] | also measured |
| --- | --- | --- | --- | --- | --- | --- | --- |
| CCN(CC)C(=O)N[C@@H]1C=C2c3cccc4[nH]cc(c34)C[C@@H]2N(C)C1 [NCGC00179663-03] | -60 | -2.4 | 50.1 | – | – | – | – |
| O=C(O)C(F)(F)F.O=C(c1ccc2ccccc2c1)c1no[n+]([O-])c1C(=O)c1ccc2ccccc2c1 [NCGC00351316-01] | -35 | – | 44.7 | – | – | – | Curve Class [1]: -2.2 |
| C/C(=C\c1ccc(C(=O)O)cc1)c1ccc2c(c1)C(C)(C)CCC2(C)C [NCGC00016015-10] | – | – | – | -10 | -1.4 | 39.8 | – |
| COc1cc([C@H]2Oc3cc([C@H]4Oc5cc(O)cc(O)c5C(=O)[C@@H]4O)ccc3O[C@@H]2CO)ccc1O [NCGC00091057-06] | -74 | – | 28.5 | – | – | – | Curve Class [1]: -2.2 |
| O=C(O)CCc1nc(-c2ccccc2)c(-c2ccccc2)o1 [NCGC00014711-11] | – | – | – | -11 | -2.4 | 89.1 | – |
| CC[PH](CC)(CC)[Au][S][C@@H]1O[C@H](COC(C)=O)[C@@H](OC(C)=O)[C@H](OC(C)=O)[C@H]1OC(C)=O [NCGC00160391-05] | – | – | – | – | – | – | Efficacy (%) (qHTS FP screen hits, Table S2): -30%; IC50 (qHTS FP screen hits, Table S2): 17.1 µM |
| CN1CCN(c2nc3cc(C(F)(F)F)ccc3n3cccc23)CC1.O=C(O)/C=C\C(=O)O [NCGC00015180-05] | -17 | -2.2 | 44.7 | – | – | – | – |
| Fc1ccc(C(c2ccc(F)cc2)N2CCN(C/C=C/c3ccccc3)CC2)cc1 [NCGC00018102-06] | -167 | – | 19.2 | – | – | – | Curve Class [1]: -2.1 |
| Cc1ccc(NS(=O)(=O)c2ccc3[nH]c(=O)[nH]c3c2)cc1C.O=C(O)C(F)(F)F [NCGC00187759-01] | -68 | – | 4 | – | – | – | Curve Class [1]: -2.4 |
| C[N+](C)(C)CC(=O)O.[Cl-] [NCGC00015150-04] | -24 | -2.4 | 56.2 | – | – | – | – |

More lines, main results first:

| Efficacy (%) [1] [%] | Curve Class [2] | IC50 [1] [µM] | Efficacy (%) [3] [%] | Curve Class [3] | IC50 [3] [µM] | Structure (SMILES) | also measured |
| --- | --- | --- | --- | --- | --- | --- | --- |
| -35 | -2.4 | 56.2 | – | – | – | COc1cc(NS(=O)(=O)c2cccc([N+](=O)[O-])c2)c2ncccc2c1 [NCGC00161706-01] | – |
| -37 | -2.4 | 56.2 | – | – | – | Oc1ccc(Cl)c2cccnc12 [NCGC00095303-04] | – |
| – | – | – | -24 | -1.4 | 10 | C=C1C(=O)O[C@@H]2[C@H]3C(C)=CC(=O)C3=C(C)CC[C@@H]12 [NCGC00485131-01] | – |
| -28 | – | 26.3 | – | – | – | O=C([O-])CCNc1cc(N2CCc3ccccc3CC2)nc(-c2ccccn2)n1.[Na+] [NCGC00390406-01] | Curve Class [1]: -2.4 |
| -34 | -3 | 30.4 | – | – | – | Cc1c(-c2cccc3c(CCCOc4cccc5ccccc45)c(C(=O)O)n(Cc4cccnc4)c23)c(COc2ccc(N3CCN(S(=O)(=O)N(C)C)CC3)cc2)nn1C [NCGC00347282-01] | – |
| -37 | -2.4 | 56.2 | – | – | – | COCc1ccc(-c2nn(Cc3ccccc3)c3ccccc23)o1 [NCGC00479273-01] | – |
| -21 | -2.4 | 44.7 | – | – | – | O=C(O)c1ccc(S(=O)(=O)N[C@@H](Cc2ccc(O)cc2)C(=O)O)cc1 [NCGC00161808-01] | – |
| – | – | – | -33 | -2.4 | 35.5 | CN(NC(=O)CC(=O)NN(C)C(=S)c1ccccc1)C(=S)c1ccccc1 [NCGC00183656-09] | – |
| – | – | – | -20 | -1.2 | 7.9 | O=C1NC(=O)/C(=C/c2ccc3nccnc3c2)S1 [NCGC00261632-01] | – |
| – | – | – | -31 | -2.4 | 39.8 | O=C(O)c1cc(O)c2cccc(O)c2c1O[C@@H]1O[C@H](CO)[C@@H](O)[C@H](O)[C@H]1O [NCGC00385595-01] | – |
| – | – | – | -19 | -1.4 | 5.6 | COc1cc(/C=C(\C#N)C(=O)Nc2nnc(C(F)(F)F)s2)ccc1OCc1ccc(C(F)(F)F)cc1C(F)(F)F [NCGC00165952-02] | – |
